# In PMC7532997, “Cytotoxic Constituents of the Bark of Hypericum roeperianum towards Multidrug-Resistant Cancer Cells” (Evidence-based Complementary and Alternative Medicine : eCAM, 2020):
# Assays:
# normal AML12 hepatocytes = assay: Resazurin reduction assay (RRA), 72 h; format: cell-based; conditions: for IC50: Mus musculus, AML12 normal hepatocytes, 72 h incubation; for Selectivity index: IC50 normal AML12 hepatocytes divided by IC50 HepG2
# From the text: (§1) Cell lines used in this work included drug-sensitive and drug-resistant phenotypes of earlier reported origin. They were all provided by Prof. Dr. Thomas Efferth from his cell lines collection; they have being used in cytotoxicity screening by our team for a decade. These include two hematological cancer cell lines, namely, the drug-sensitive CCRF-CEM leukemia cell line and its multidrug-resistant P-gp-over-expressing subline CEM/ADR5000 cells and […] carcinoma cell lines, namely, U87.MG glioblastoma cell line and its EGFR-transfected U87.MGΔEGFR subline, HCT116 (p53^+/+) colon cancer cell line and its knockout clone HCT116 (p53^−/^−), and MDA-MB-231-pcDNA3 breast cancer cell line and its BCRP-transfected multidrug-resistant MDA-MB-231-BCRP clone 23 cell line, as well as the normal AML12 hepatocytes, used to compare with HepG2 liver cancer cells.
# (§2) The RRA was applied to evaluate the cytotoxicity of botanicals, the isolated phytochemicals (1–5, 7, and 8), and doxorubicin on the cell growth as reported earlier. Cells treated with various samples at different concentrations were incubated for 72 h in humidified 5% CO2 atmosphere at 37°C. Cells were further coloured with resazurin and incubated for 1–2 h; the fluorescence was further measured with an Infinite M2000 Pro™ plate reader (Tecan, Crailsheim, Germany) at 544 nm as the excitation wavelength and 590 nm as the emission wavelength. The IC50 values represented the concentrations of the sample required to inhibit 50% of cell proliferation and were calculated from a calibration curve by linear regression using Microsoft Excel 2007 [29].
# [1] = test system: HCT116 (p53+/+) colon adenocarcinoma cells; assay: Resazurin reduction assay (RRA), 72 h; format: cell-based; conditions: Homo sapiens, HCT-116, 72 h incubation
# From the text: as §1, §2
# [2] = test system: HepG2 hepatocarcinoma cells; assay: Resazurin reduction assay (RRA), 72 h; format: cell-based; conditions: Homo sapiens; HepG2, 72 h incubation
# From the text: as §1, §2
# [3] = test system: MDA-MB-231-BCRP breast cancer cells; assay: Resazurin reduction assay (RRA), 72 h; format: cell-based; conditions: 72 h incubation
# From the text: as §1, §2
# [4] = test system: HCT116 (p53-/-) colon cancer cells; assay: Resazurin reduction assay (RRA), 72 h; format: cell-based; conditions: Homo sapiens, HCT-116, 72 h incubation
# From the text: as §1, §2
# [5] = test system: CEM/ADR5000 leukemia cells (P-gp-overexpressing); assay: Resazurin reduction assay (RRA), 72 h; format: cell-based; conditions: Homo sapiens; CEM/ADR5000, 72 h incubation
# From the text: as §1, §2
# CCRF-CEM leukemia cells = assay: Resazurin reduction assay (RRA), 72 h; format: cell-based; conditions: Homo sapiens, 72 h incubation
# From the text: as §1, §2
# [6] = test system: MDA-MB-231-pcDNA breast cancer cells; assay: Resazurin reduction assay (RRA), 72 h; format: cell-based; conditions: 72 h incubation
# From the text: as §1, §2
# U87MG glioblastoma cells = assay: Resazurin reduction assay (RRA), 72 h; format: cell-based; conditions: Homo sapiens, U-87 MG, 72 h incubation
# From the text: as §1, §2
# [7] = test system: U87MG.ΔEGFR glioblastoma cells; assay: Resazurin reduction assay (RRA), 72 h; format: cell-based; conditions: 72 h incubation
# From the text: as §1, §2
# [8] = test system: 9 tested cancer cell lines; assay: Resazurin reduction assay (RRA), whole panel; format: cell-based; conditions: for cytotoxic effect over the panel (in words): 9 tested cancer cell lines; for IC50: whole cell line panel, 72 h, read-out: IC50 in the cancer cells tested
# From the text: as §1, §2
# [9] = test system: all cancer cell lines tested in the present study; design: method as in PMID 24075210; conditions: cited from earlier work
# K562 leukemia cells = test system: K562 leukemia cells; design: method as in PMID 31479710; conditions: cited from earlier work
# CCRF-CEM cells [10] = assay: Flow cytometric cell cycle distribution (propidium iodide); format: cell-based; conditions: 24 h
# Protocol: Various concentrations of botanical HRB, phytochemical 1, and doxorubicin or DMSO (solvent control) were used to treat CCRF-CEM cells (1 × 10^6 cells). Cells were further incubated for 24 h in humidified 5% CO2 atmosphere at 37°C and analyzed using a BD Accury C6 Flow Cytometer (BD Biosciences, Heidelberg, Germany) by measuring the propidium iodide fluorescence of individual nucleus, as described earlier. Experiments were conducted thrice independently with three parallel measurements.
# [11] = test system: reactive oxygen species in CCRF-CEM cells; assay: ROS production (H2DCFH-DA staining, flow cytometry); format: cell-based; conditions: 24 h
# Protocol: Various concentrations of HRB and triterpenoid 1 were used to treat CCRF-CEM cells (1 × 10^6 cells); DMSO (solvent control); or hydrogen peroxide (H2O2; positive control). After 24 h incubation in humidified 5% CO2 atmosphere at 37°C, the production of ROS was evaluated using 2′,7′-dichlorodihydrofluorescein diacetate (H2DCFH-DA) (Sigma-Aldrich) staining, as described earlier.
# CCRF-CEM cells [12] = assay: Apoptosis by annexin V/PI staining; format: cell-based; conditions: 24 h, 2 × IC50
# Protocol: The CCRF-CEM cells (1 × 10^6; 1 ml) were also treated with HRB, compound 1 and doxorubicin for 24 h (in humidified 5% CO2 atmosphere at 37°C), and apoptosis was further assessed by flow cytometry using the flouresceinisothiocynate- (FITC-) conjugated annexin V/PI assay kit (eBioscience™Annexin V; Invitogen, San Diego, USA), as previously published. Briefly, treated cells were centrifuged at 1200 rpm for 5 min, then washed twice with ice-cold PBS, resuspended in 500 µl binding buffer, and stained with 5 µl FITC-conjugated annexin V ([…]) and 10 µl PI ([…]). After 15 min incubation at room temperature (RT) in the dark, cells were analyzed using a BD Accury C6 Flow Cytometer (BD Biosciences). Cells stained with only annexin V were evaluated as being in early apoptosis. Cells stained with both annexin V and propidium iodide were evaluated as being in late apoptosis or in a necrotic stage.
# [13] = test system: caspases 3/7 in CCRF-CEM cells; assay: Caspase-Glo 3/7 assay; format: cell-based; conditions: 6 h, compared to untreated cells
# Protocol: (§3) Different concentrations of HRB and compound 1 were used to treat CCRF-CEM cells for 6 h. The activities of caspases were determined using Caspase-Glo 3/7, Caspase-Glo 8, and Caspase-Glo 9 Assay kits (Promega, Mannheim, Germany) by measuring the luminescence using an Infinite M2000 ProTM plate reader (Tecan), as reported previously.
# [14] = test system: caspase 8 in CCRF-CEM cells; assay: Caspase-Glo 8 assay; format: cell-based; conditions: 6 h, compared to untreated cells
# Protocol: as §3
# [15] = test system: caspase 9 in CCRF-CEM cells; assay: Caspase-Glo 9 assay; format: cell-based; conditions: 6 h, compared to untreated cells
# Protocol: as §3
# HepG2 cells = test system: HepG2 cells; design: method as in PMID 31360210; conditions: cited from earlier work
# CEM-ADR5000 cells = test system: CEM-ADR5000 cells; design: method as in PMID 31360210; conditions: cited from earlier work
Molecule,IC50 (normal AML12 hepatocytes) [µM],IC50 [1] [µM],IC50 [2] [µM],IC50 [3] [µM],IC50 [4] [µM],IC50 [5] [µM],IC50 (CCRF-CEM leukemia cells) [µM],IC50 [6] [µM],IC50 (U87MG glioblastoma cells) [µM],IC50 [7] [µM],cytotoxic effect over the panel (in words) [8],further results
"COc1cc(C2Oc3ccc4c(=O)c5ccccc5oc4c3OC2CO)cc(OC)c1O (stereo not drawn) [Compound 8, 3′-hydroxymethyl-2′-(4″-hydroxy-3″,5″-dimethoxyphenyl)-5′,6′:5,6-(xanthone)-1′,4′-dioxane]",> 85.5,37.8 ± 2.92,31.3 ± 1.19,30.5 ± 1.88,> 85.5,43.5 ± 2.97,16.3 ± 2.12,36.9 ± 2.73,35.5 ± 3.28,30.6 ± 3.14,selective cytotoxic effects,–
cudraxanthone I,–,–,–,–,–,–,–,–,–,–,–,IC50 [9]: < 10 µM
"O=c1c2cc(O)c(O)cc2oc2cc(O)cc(O)c12 [Compound 4, 1,3,6,7-tetrahydroxyxanthone]",45.4 ± 3.52,40.2 ± 3.09,32.4 ± 3.72,20.4 ± 1.17,> 154,23.2 ± 1.66,19.9 ± 2.12,> 154,106 ± 6.74,30.4 ± 2.91,selective cytotoxic effects,Selectivity index (normal AML12 hepatocytes): 1.40
"COc1cccc2c(=O)c3cc(O)ccc3oc12 [Compound 3, 2-hydroxy-5-methoxyxanthone]",> 165,46.7 ± 3.38,44.2 ± 2.65,33.6 ± 1.99,> 165,53 ± 3.08,16.8 ± 0.96,43.8 ± 3.47,74.4 ± 4.75,45 ± 5.22,selective cytotoxic effects,–
"COc1cc(C2Oc3ccc4c(=O)c5c(O)cc(O)cc5oc4c3OC2CO)cc(OC)c1O (stereo not drawn) [Compound 7, 3′-hydroxymethyl-2′-(4″-hydroxy-3″,5″-dimethoxyphenyl)-5′,6′:5,6-(6,8-dihydroxyxanthone)-1′,4′-dioxane]",20.9 ± 1.17,> 91.7,25.2 ± 1.69,22.2 ± 2.88,> 91.7,54 ± 4.38,23.3 ± 1.46,20.7 ± 1.32,29.7 ± 1.77,12.7 ± 0.75,selective cytotoxic effects,Selectivity index (normal AML12 hepatocytes): 0.83
"O=c1c2ccc(O)c(O)c2oc2cc(O)cc(O)c12 [Compound 5, 1,3,5,6-tetrahydroxyxanthone]",150 ± 7.03,75.5 ± 6.1,64.7 ± 5.77,62.9 ± 5.32,112 ± 8.49,38.5 ± 4.07,38.6 ± 2.11,75.2 ± 4.88,61.4 ± 3.39,59 ± 6.01,–,cytotoxic effect against K562 (K562 leukemia cells): 12.98 µg/mL; IC50 (K562 leukemia cells; read-out: cytotoxic effect against K562): 49.9 µM
"C[C@H]1C(=O)CC[C@@H]2[C@]1(C)CC[C@H]1[C@@]2(C)CC[C@@]2(C)C3CC(C)(C)CC[C@]3(C)CC[C@]12C (stereo partly drawn) [Compound 2, fridelan-3-one]",–,–,–,–,–,–,–,–,–,–,–,IC50 [8]: > 100 µM
"COc1cccc2c1C(=O)c1c(O)c3c(c(O)c1C2=O)C[C@@](O)(C(=O)CO)C[C@@H]3O[C@H]1C[C@H](N)[C@H](O)[C@H](C)O1 [Doxorubicin, reference compound]",52.9 ± 4.09,–,4.56 ± 0.48,0.79 ± 0.08,1.78 ± 0.08,–,0.02,0.13 ± 0.01,0.26 ± 0.03,0.98 ± 0.07,–,"cell cycle arrest (phase, in words) (CCRF-CEM cells [10]): S and G2/M phase arrest"
"C[C@H]1C(=O)CC[C@@H]2[C@]1(C)CC[C@H]1[C@@]2(C)CC[C@@]2(C(=O)O)C3CC(C)(C)CC[C@]3(C)CC[C@]12C (stereo partly drawn) [Compound 1, trichadonic acid]",47.3 ± 0.81,17.4 ± 1.84,21.7 ± 3.18,15 ± 1.17,44.2 ± 3.21,18.3 ± 1.56,14.4 ± 0.53,16.5 ± 0.74,16.2 ± 1.09,14.7 ± 1.55,–,"ROS production ([11]; 7.22 µM): 12.35%; ROS production ([11]; 57.76 µM): 68.12%; ROS production ([11]; 2 × IC50): ≤ 68.12%; annexin V (+)/PI (+) cells (CCRF-CEM cells [12]): 52.5%; increase of caspases 3/7 activity [13]: 2.52 fold; increase of caspase 8 activity [14]: 2.62 fold; cell cycle arrest (phase, in words) (CCRF-CEM cells [10]): cell cycle arrest in the Go/G1 phase; cells in sub-G0/G1 phase (CCRF-CEM cells [10]; 1/4 × IC50): 1.86%; cells in sub-G0/G1 phase (CCRF-CEM cells [10]; 2 × IC50): 17.40%; IC50 [8]: 14.4 to 44.2 µM; increase of caspase 9 activity [15]: 2.23 fold"
"OO [H2O2, Hydrogen peroxide, reference compound]",–,–,–,–,–,–,–,–,–,–,–,ROS levels ([11]; 50 µM): 94.30%
"C=C(C)[C@@H]1CC[C@]2(C(=O)O)CC[C@]3(C)[C@H](CC[C@@H]4[C@@]5(C)CC[C@H](O)C(C)(C)[C@@H]5CC[C@]43C)[C@@H]12 [Compound 6, betulinic acid]",–,–,–,–,–,–,–,–,–,–,–,IC50 (HepG2 cells): 44.2 µM; IC50 (CEM-ADR5000 cells): 7.65 µM
